Results reported in patent publication US9796700B2 (Celgene CAR LLC, priority 2013, dated 2017).

Biological target: Erk1 (Homo sapiens (Human), UniProt P27361)
Assay: Protein Mass Modification Assay (intact protein MALDI)
Format: binding
Description: Protein Mass Modification Assay
Intact protein: Erk1 from Millipore (Cat. No. 14-439) was incubated for 60 min. at room temperature with a 10-fold excess of test compound to protein. 4 μL aliquots of the resulting mixture were diluted with 15 μL of 0.2% TFA prior to micro C4 ZipTipping directly onto the MALDI target using sinapinic acid as the desorption matrix (10 mg/ml in 0.1% TFA:Acetonitrile 50:50, v/v). The centroid mass of the target protein in the control sample was compared with the centroid mass of the target protein incubated with compound. A shift in the centroid mass of the treated protein compared to the untreated protein was divided by the molecular weight of the compound. This number corresponds to the percentage of modified protein after one hour incubation. Results from this assay are reported in Table A under the column “ERK1 Mass Mod (%).”

Sequence of Erk1 (P27361 whole entry, looked up): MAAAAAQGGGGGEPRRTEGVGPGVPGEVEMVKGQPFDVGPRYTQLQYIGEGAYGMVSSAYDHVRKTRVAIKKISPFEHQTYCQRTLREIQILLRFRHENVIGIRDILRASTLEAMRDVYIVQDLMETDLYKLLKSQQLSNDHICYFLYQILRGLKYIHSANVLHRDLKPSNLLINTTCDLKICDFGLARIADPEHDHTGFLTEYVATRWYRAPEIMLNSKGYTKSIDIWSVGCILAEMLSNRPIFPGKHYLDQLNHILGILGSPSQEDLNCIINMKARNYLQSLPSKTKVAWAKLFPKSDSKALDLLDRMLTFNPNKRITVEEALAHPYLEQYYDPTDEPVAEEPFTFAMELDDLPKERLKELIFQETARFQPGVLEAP

| Compound | ERK1 Mass Mod (%) |
| --- | --- |
| C=CC(=O)Nc1ccccc1Nc1nc(Nc2cc(C(=O)NCCO)c(F)cc2C)ncc1C(F)(F)F [Compound I-81, 5-((4-((2-Acrylamidophenyl)amino)-5-(trifluoromethyl)pyrimidin-2-yl)amino)-2-fluoro-N-(2-hydroxyethyl)-4-methylbenzamide] | E (provided a mass modification of ≧70%) |
| C=CC(=O)Nc1ccccc1Nc1nc(NC(C)(C)C)ncc1C(F)(F)F [Compound I-82, N-(2-((2-(tert-Butylamino)-5-(trifluoromethyl)pyrimidin-4-yl)amino)phenyl)acrylamide] | E (provided a mass modification of ≧70%) |
| C=CC(=O)Nc1ccccc1Nc1nc(Nc2cc(C(N)=O)ccn2)ncc1C(F)(F)F [Compound I-83, 2-((4-((2-Acrylamidophenyl)amino)-5-(trifluoromethyl)pyrimidin-2-yl)amino)isonicotinamide] | E (provided a mass modification of ≧70%) |
| C=CC(=O)Nc1cc(C)ccc1Nc1nc(Nc2cc(OC)nc(N3CCN(CC)CC3)c2)ncc1C(F)(F)F [Compound I-89, N-(2-((2-((2-(4-Ethylpiperazin-1-yl)-6-methoxypyridin-4-yl)amino)-5-(trifluoromethyl)pyrimidin-4-yl)amino)-5-methylphenyl)acrylamide] | F (provided a mass modification of 31-69%) |
| C=CC(=O)Nc1cc(C)ccc1Nc1nc(Nc2cc(OC)nc(N3CCN(C(C)=O)CC3)c2)ncc1C(F)(F)F [Compound I-93, N-(2-((2-((2-(4-Acetylpiperazin-1-yl)-6-methoxypyridin-4-yl)amino)-5-(trifluoromethyl)pyrimidin-4-yl)amino)-5-methylphenyl)acrylamide] | E (key: E: provided a mass modification of ≧70%; F: provided a mass modification of 31-69%; G: proived a mass modification ≦30%) |
| C=CC(=O)Nc1cc(C)ccc1Nc1nc(Nc2cc(OC)nc(N3CCOCC3)c2)ncc1C(F)(F)F [Compound I-94, N-(2-((2-((2-Methoxy-6-morpholinopyridin-4-yl)amino)-5-(trifluoromethyl)pyrimidin-4-yl)amino)-5-methylphenyl)acrylamide] | F (provided a mass modification of 31-69%) |
| C=C(C)S(=O)(=O)Nc1ccccc1Nc1nc(Nc2cc(C(C)=O)ccc2C)ncc1C(F)(F)F [Compound I-97, N-(2-((2-((5-acetyl-2-methylphenyl)amino)-5-(trifluoromethyl)pyrimidin-4-yl)amino)phenyl)prop-1-ene-2-sulfonamide] | G (proived a mass modification ≦30%) |
| C=C(C)S(=O)(=O)Nc1cc(F)ccc1Nc1nc(Nc2cc(C(C)=O)ccc2C)ncc1C(F)(F)F [Compound I-99, N-(2-((2-((5-acetyl-2-methylphenyl)amino)-5-(trifluoromethyl)pyrimidin-4-yl)amino)-5-fluorophenyl)prop-1-ene-2-sulfonamide] | G (proived a mass modification ≦30%) |
| C=CC(=O)Nc1ccccc1Nc1nc(NC2CCCCC2)ncc1Cl [Compound I-107, N-(2-((5-chloro-2-(cyclohexylamino)pyrimidin-4-yl)amino)phenyl) acrylamide] | E (provided a mass modification of ≧70%) |
| C=CC(=O)Nc1ccccc1Nc1nc(N[C@H]2CCCN(C(C)=O)C2)ncc1Cl [Compound I-115, (S)—N-(2-((2-((1-acetylpiperidin-3-yl)amino)-5-chloropyrimidin-4-yl)amino)phenyl) acrylamide] | E (provided a mass modification of ≧70%) |
| C=CC(=O)Nc1ccccc1Nc1nc(NC2CCN(C(C)=O)CC2)ncc1Cl [Compound I-116, N-(2-((2-((1-acetylpiperidin-4-yl)amino)-5-chloropyrimidin-4-yl)amino)phenyl) acrylamide] | E (provided a mass modification of ≧70%) |
| C=CC(=O)Nc1ccccc1Nc1nc(NC2CCN(S(C)(=O)=O)CC2)ncc1Cl [Compound I-117, N-(2-((5-chloro-2-((1-(methylsulfonyl)piperidin-4-yl)amino)pyrimidin-4-yl)amino)phenyl)acrylamide] | E (provided a mass modification of ≧70%) |
| C=CC(=O)Nc1ccccc1Nc1nc(N[C@H]2CCCN(C=O)C2)ncc1Cl [Compound I-122, (S)—N-(2-((5-chloro-2-((1-formylpiperidin-3-yl)amino)pyrimidin-4-yl)amino)phenyl)acrylamide] | E (provided a mass modification of ≧70%) |
| C=CC(=O)Nc1ccccc1Nc1nc(N[C@H]2CCCNC2)ncc1Cl [Compound I-126, (S)—N-(2-((5-chloro-2-(piperidin-3-ylamino)pyrimidin-4-yl)amino)phenyl) acrylamide] | E (provided a mass modification of ≧70%) |
| C=CC(=O)Nc1ccccc1Nc1nc(NC2CCC(F)(F)CC2)ncc1Cl [Compound I-127, N-(2-((5-chloro-2-((4,4-difluorocyclohexyl)amino)pyrimidin-4-yl)amino)phenyl) acrylamide] | E (provided a mass modification of ≧70%) |
| C=CC(=O)Nc1ccccc1Nc1nc(N[C@@H]2CCCN(C(C)=O)C2)ncc1Cl [Compound I-128, (R)—N-(2-((2-((1-acetylpiperidin-3-yl)amino)-5-chloropyrimidin-4-yl)amino)phenyl) acrylamide] | E (provided a mass modification of ≧70%) |
| C=CC(=O)Nc1ccccc1Nc1nc(N[C@H]2CC[C@H](C(N)=O)CC2)ncc1Cl [Compound I-129, trans-4-((4-((2-acrylamidophenyl)amino)-5-chloropyrimidin-2-yl)amino)-cyclohexanecarboxamide] | E (provided a mass modification of ≧70%) |
| C=CC(=O)Nc1ccccc1Nc1nc(N[C@H]2CCCN(C(=O)C(C)(C)O)C2)ncc1Cl [Compound I-135, (S)—N-(2-((5-chloro-2-((1-(2-hydroxy-2-methylpropanoyl)piperidin-3-yl)amino)pyrimidin-4-yl)amino)phenyl)acrylamide] | E (provided a mass modification of ≧70%) |
| C=CC(=O)Nc1ccccc1Nc1nc(N[C@H]2CCCN(C(=O)[C@H](C)O)C2)ncc1Cl [Compound I-138, N-(2-((5-chloro-2-(((S)-1-((S)-2-hydroxypropanoyl)piperidin-3-yl)amino)pyrimidin-4-yl)amino)phenyl)acrylamide] | E (provided a mass modification of ≧70%) |
| C=CC(=O)Nc1ccccc1Nc1nc(Nc2ccc(N3CCNCC3)cc2OC(F)F)ncc1Cl [Compound I-142, N-(2-((5-chloro-2-((2-(difluoromethoxy)-4-(piperazin-1-yl)phenyl)amino)pyrimidin-4-yl)amino)phenyl)acrylamide] | E (provided a mass modification of ≧70%) |
| C=CC(=O)Nc1ccccc1Nc1nc(Nc2ccc(N3CCOCC3)cc2OC)ncc1C#N [Compound I-143, N-(2-((5-cyano-2-((2-methoxy-4-morpholinophenyl)amino)pyrimidin-4-yl)amino)phenyl)acrylamide] | F (provided a mass modification of 31-69%) |
